Laboratory results reported in ChEMBL document CHEMBL4706632, “Development of Potential Antitumor Agents from the Scaffolds of Plant-Derived Terpenoid Lactones” (J Med Chem, 2020).
pIC50: −log10 of the molar value.

Assays:
[1] = Inhibition of PAFR in New Zealand rabbit platelets assessed as reduction in PAF-induced platelet aggregation measured within 5 mins by aggregometry analysis; format: tissue-based; conditions: Oryctolagus cuniculus
WM 266-4 = test: Cytotoxicity against human WM 266-4 cells incubated for 72 hrs by ATPlite assay; format: functional, cell-based; conditions: WM 266-4, 72 h
HCT-116 [2] = test: Cytotoxicity against human HCT116 cells incubated for 72 hrs by ATPlite assay; format: functional, cell-based; conditions: HCT-116, 72 h
P388 = test: Antiproliferative activity against mouse P388 cells; format: functional, cell-based
A-431 = test: Antiproliferative activity against human A-431 cells incubated for 72 hrs by Sulforhodamine B assay; format: functional, cell-based; conditions: A-431, 72 h
A549 = test: Antiproliferative activity against human A549 cells incubated for 72 hrs by Sulforhodamine B assay; format: functional, cell-based; conditions: A549, 72 h
[3] = Antiproliferative activity against human U87-MG cells incubated for 72 hrs by Sulforhodamine B assay; format: functional, cell-based; conditions: U-87 MG
MDA-MB-231 [4] = test: Cytotoxicity against human MDA-MB-231 cells incubated for 48 hrs by MTT assay; format: functional, cell-based; conditions: MDA-MB-231, 48 h
HepG2 = test: Cytotoxicity against human HepG2 cells incubated for 48 hrs by MTT assay; format: functional, cell-based; conditions: HepG2, 48 h
AGS = test: Cytotoxicity against human AGS cells incubated for 48 hrs by MTT assay; format: functional, cell-based
HeLa = test: Cytotoxicity against human HeLa cells incubated for 48 hrs by MTT assay; format: functional, cell-based
PANC-1 = test: Cytotoxicity against human Panc-1 cells incubated for 48 hrs by MTT assay; format: functional, cell-based; conditions: PANC-1, 48 h
HCT-116 [5] = test: Antiproliferative activity against human HCT-116 cells incubated for 72 hrs by WST-1 assay; format: functional, cell-based; conditions: HCT-116, 72 h
MCF7 = test: Cytotoxicity against human MCF-7 cells incubated for 72 hrs by MTT assay; format: functional, cell-based; conditions: MCF7, 72 h
MDA-MB-231 [6] = test: Cytotoxicity against human MDA-MB-231 cells incubated for 72 hrs by MTT assay; format: functional, cell-based; conditions: MDA-MB-231, 72 h

Structure (SMILES): Cc1ccccc1Cn1cc(CO[C@H]2C(=O)O[C@H]3O[C@]45C(=O)O[C@@H]6C[C@@H](C(C)(C)C)[C@@]32[C@@]64[C@@H](O)[C@@H]2OC(=O)[C@@H](C)[C@@]25O)nn1
- pIC50 [1]: 8.24

Structure (SMILES): C/C(C=O)=C\[C@H]1C[C@@H]([C@@H]2CC[C@]34C[C@]23C=C[C@@H]2[C@@]3(C)CC=C5C[C@@H](c6ccccc6)OC[C@]5(C)[C@@H]3C[C@@H](O)[C@]24C)C(=O)O1
- pIC50 (WM 266-4): 5.82
- pIC50 (HCT-116 [2]): 7.04

Structure (SMILES): CC(O)(CO)[C@H]1C[C@H](O)[C@@H]([C@@H]2CC=C3[C@]4(C)[C@H](O)C[C@@H]5[C@](C)(CC=C6C[C@@H](Cc7ccccc7)OC[C@@]65C)[C@H]4CC[C@]32C)[C@@H](O)O1 (stereo partly drawn)
- pIC50 (WM 266-4): 4.51
- pIC50 (HCT-116 [2]): 5.38

Structure (SMILES): CC(=O)O[C@@H]1C[C@H](O)[C@@]23COC(O)[C@]1(C)[C@@H]2C[C@@H](O)[C@]1(C)[C@@H]3C(=O)C[C@@]2(C)[C@H](c3ccoc3)C[C@H]3O[C@@]312 (stereo partly drawn)
- pIC50 (P388): > 8.72

Structure (SMILES): CC(=O)OC1OC[C@@]23[C@H]4C(=O)C(OC(C)=O)[C@@]5(C)[C@H](c6ccoc6)C[C@H]6O[C@]65[C@]4(C)[C@H](O)C[C@H]2[C@]1(C)[C@H](OC(C)=O)C[C@@H]3O (stereo partly drawn)
- pIC50 (P388): 7.80

Structure (SMILES): C[C@]1(O)COC2(C[C@@H]([C@@H]3CC[C@]45C[C@]34C=C[C@@H]3[C@@]4(C)CC=C6C[C@@H](Cc7ccccc7)OC[C@]6(C)[C@@H]4C[C@@H](O)[C@]35C)C(=O)O2)C1 (stereo partly drawn)
- pIC50 (WM 266-4): 5.89
- pIC50 (HCT-116 [2]): 6.35

Structure (SMILES): CC(=O)O[C@@]1(C)COC2(C1)OC(=O)[C@H]([C@@H]1CC[C@]34C[C@]13C=C[C@@H]1[C@@]3(C)CC=C5C[C@@H](Cc6ccccc6)OC[C@]5(C)[C@@H]3CC(=O)[C@]14C)[C@H]2O (stereo partly drawn)
- pIC50 (WM 266-4): 6.64
- pIC50 (HCT-116 [2]): 7.24

Structure (SMILES): C=C[C@H]1OC(=O)C=C2C1=C[C@H]1OC(=O)[C@@]3(C)CCC[C@@]2(C)[C@@H]13
- pIC50 (P388): 6.80

Structure (SMILES): C[C@H](CO)[C@H]1OC(=O)C=C2[C@@]13O[C@@H]3[C@H]1OC(=O)[C@@]3(C)C[C@@H](O)C[C@@]2(C)[C@@H]13
- pIC50 (A-431): 5.77
- pIC50 (A549): 5.85
- pIC50 [3]: 5.85

Structure (SMILES): C=C[C@H]1OC(=O)C=C2[C@]3(C)[C@H]4[C@H](OC(=O)[C@@]4(C)[C@@H](O)[C@H]4O[C@H]43)[C@H]3O[C@@]231
- pIC50 (MDA-MB-231 [4]): 6.18
- pIC50 (HepG2): 5.46
- pIC50 (AGS): 6.26
- pIC50 (HeLa): 6.21
- pIC50 (PANC-1): 5.07

Structure (SMILES): C/C(=C\[C@@H]1OC(=O)[C@H]([C@@H]2CC[C@]34C[C@]23C=C[C@@H]2[C@@]3(C)CC=C5C[C@@H](c6ccccc6)OC[C@]5(C)[C@@H]3C[C@@H](O)[C@]24C)[C@H]1O)CO
- pIC50 (WM 266-4): 6.47
- pIC50 (HCT-116 [2]): 7.09

Structure (SMILES): COC(=O)[C@@]12OC[C@]34[C@H]([C@@H](O)[C@@H]1O)[C@@]1(C)CC(=O)C(O)=C(C)[C@@H]1C[C@H]3OC(=O)[C@H](OC(C)=O)[C@@H]24 [BRUCEINE B]
- pIC50 (HCT-116 [5]): 7.00

Structure (SMILES): COC(=O)[C@@]12OC[C@]34[C@H]([C@@H](O)[C@@H]1O)[C@@]1(C)C=C(O[C@@H]5O[C@H](CO)[C@@H](O)[C@H](O)[C@H]5O)C(=O)[C@@H](C)[C@@H]1C[C@H]3OC(=O)[C@H](OC(=O)C=C(C)C)[C@@H]24 [BRUCEOSIDE A]
- pIC50 (MCF7): < 4.30
- pIC50 (MDA-MB-231 [6]): < 4.30

Structure (SMILES): C=C1[C@@H](O)C[C@H]2C(C)(C)C[C@H](Cl)C[C@]2(C)[C@H]1C[C@H](O)[C@H]1CC(=O)NC1=O [CHLOROLISSOCLIMIDE]
- pIC50 (P388): 8.40

Structure (SMILES): C=C1[C@@H](O)C[C@H]2C(C)(C)[C@@H](Cl)[C@H](Cl)C[C@]2(C)[C@H]1C[C@H](O)[C@H]1CC(=O)NC1=O [DICHLOROLISSOCLIMIDE]
- pIC50 (P388): 8.70

Structure (SMILES): CC(C)c1oc(=O)cc2c1[C@@H](O)[C@H]1OC(=O)[C@@]3(C)[C@@H](O)[C@H]4O[C@H]4[C@@]2(C)[C@@H]13 [NAGILACTONE C]
- pIC50 (MDA-MB-231 [4]): 5.30
- pIC50 (HepG2): 4.85
- pIC50 (AGS): 5.64
- pIC50 (HeLa): 5.48
- pIC50 (PANC-1): < 4.40

Structure (SMILES): CC(C)[C@H]1OC(=O)C=C2C1=C[C@H]1OC(=O)[C@@]3(C)CCC[C@@]2(C)[C@@H]13 [NAGILACTONE F]
- pIC50 (MDA-MB-231 [4]): 6.00
- pIC50 (HepG2): 5.89
- pIC50 (AGS): 6.30
- pIC50 (HeLa): 6.14
- pIC50 (P388): 6.55
- pIC50 (PANC-1): 4.72
